In ChEMBL document CHEMBL1134595, “Exploration of novel aryl binding sites of farnesyltransferase using molecular modeling and benzophenone-based farnesyltransferase inhibitors” (J Med Chem, 2001):

Target: T1, Farnesyltransferase (Saccharomyces cerevisiae S288c, UniProt P22007+P29703)
T1 sequence (P29703 whole entry): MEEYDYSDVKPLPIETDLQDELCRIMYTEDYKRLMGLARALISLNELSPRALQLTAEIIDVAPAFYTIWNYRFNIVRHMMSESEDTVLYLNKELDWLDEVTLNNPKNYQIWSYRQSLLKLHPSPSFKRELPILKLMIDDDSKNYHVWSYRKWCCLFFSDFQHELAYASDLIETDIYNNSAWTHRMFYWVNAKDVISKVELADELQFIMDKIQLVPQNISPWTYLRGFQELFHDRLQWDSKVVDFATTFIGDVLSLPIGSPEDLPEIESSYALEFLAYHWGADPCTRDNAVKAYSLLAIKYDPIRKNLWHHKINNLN
T1 sequence (P22007 whole entry): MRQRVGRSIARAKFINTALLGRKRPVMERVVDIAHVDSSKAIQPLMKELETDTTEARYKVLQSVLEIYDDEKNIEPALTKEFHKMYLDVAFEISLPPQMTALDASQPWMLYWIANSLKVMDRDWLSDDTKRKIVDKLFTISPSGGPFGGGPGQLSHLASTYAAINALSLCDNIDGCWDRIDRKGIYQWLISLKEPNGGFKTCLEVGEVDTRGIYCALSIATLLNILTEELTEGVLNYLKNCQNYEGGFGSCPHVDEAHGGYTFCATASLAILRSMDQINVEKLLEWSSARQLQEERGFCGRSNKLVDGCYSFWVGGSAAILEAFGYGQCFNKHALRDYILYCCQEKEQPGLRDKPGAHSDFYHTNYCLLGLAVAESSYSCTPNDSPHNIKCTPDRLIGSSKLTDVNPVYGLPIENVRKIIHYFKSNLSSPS
Assay: Inhibitory activity against yeast farnesyltransferase
Format: protein-complex assay

Row | IC50 | Compound
1 | 0.1 nM | CSCC[C@H](NC(=O)c1ccc(CN(Cc2ccccc2)c2cccnc2)cc1-c1ccccc1C)C(=O)O
2 | 455 nM | Cc1ccc(CC(=O)Nc2ccc(NC(=O)/C=C/c3csc(-c4ccc([N+](=O)[O-])cc4)n3)cc2C(=O)c2ccccc2)cc1
3 | 5.4 nM | CCC(C)[C@@H](CN(CC(=O)N[C@@H](CCSC)C(=O)O)Cc1cccc2ccccc12)NC(=O)CSCc1ccc(C#N)cc1 (some centres undefined)
4 | 6300 nM | Cc1ccc(CC(=O)Nc2ccc(NC(=O)/C=C/c3ccc(-c4ccc(Cl)cc4)o3)cc2C(=O)c2ccccc2)cc1
5 | 2000 nM | Cc1ccc(CC(=O)Nc2ccc(NC(=O)CCc3ccccc3)cc2C(=O)c2ccccc2)cc1
6 | 1100 nM | Cc1ccc(CC(=O)Nc2ccc(NC(=O)CCCCCc3ccccc3)cc2C(=O)c2ccccc2)cc1
7 | 925 nM | Cc1ccc(CC(=O)Nc2ccc(NC(=O)/C=C/c3ccc(-c4ccc(Br)cc4)o3)cc2C(=O)c2ccccc2)cc1
8 | 2000 nM | Cc1ccc(CC(=O)Nc2ccc(NC(=O)Cc3ccccc3)cc2C(=O)c2ccccc2)cc1
9 | 6000 nM | Cc1ccc(CC(=O)Nc2ccc(NC(=O)c3ccccc3)cc2C(=O)c2ccccc2)cc1
10 | 530 nM | Cc1ccc(CC(=O)Nc2ccc(NC(=O)CCCc3ccccc3)cc2C(=O)c2ccccc2)cc1
11 | 0.4 nM | CSCC[C@H](NC(=O)c1ccc(COc2cccnc2)cc1-c1ccccc1C)C(=O)O
12 | 390 nM | Cc1ccc(CC(=O)Nc2ccc(NC(=O)CCCCc3ccccc3)cc2C(=O)c2ccccc2)cc1
13 | 6 nM | CSCC[C@H](NC(=O)c1ccc(COCc2ccc(-c3ccccc3)o2)cc1-c1ccccc1)C(=O)O
14 | 12 nM | CCC(C)[C@@H](CN(CC(=O)N[C@@H](CCSC)C(=O)O)Cc1cccc2ccccc12)NC(=O)CC1CN(Cc2ccc(C#N)cc2)C=N1 (some centres undefined)
